# Measured values as given in patent US8461183B2, “PPAR agonist compounds, preparation and uses” (Genfit, priority 2008, dated 2013).
# What was measured:
# Format in all cases: cell-based
# [1] = biological target: T1, hPPARδ (Homo sapiens, UniProt Q03181); assay: Gal4-hPPARδ chimera transactivation (luciferase) in COS-7 cells; details: COS-7 cells, Gal4-hPPARδ, 24 hours; for EC50: luciferase, read-out: PPARδ EC50; for Emax: relative to maximum activation obtained with GW501516, read-out: PPARδ TOP % (maximum activation)
# T1 construct: corresponding to the DEF domains (structural elements of the promoter of the PPARs: D=hinge, EF=ligand fixation domain and AF2 fixation site); expressed in transfected cells; host or cells: COS-7 (monkey kidney fibroblasts)
# T1 sequence (Q03181 211-439 limits assumed): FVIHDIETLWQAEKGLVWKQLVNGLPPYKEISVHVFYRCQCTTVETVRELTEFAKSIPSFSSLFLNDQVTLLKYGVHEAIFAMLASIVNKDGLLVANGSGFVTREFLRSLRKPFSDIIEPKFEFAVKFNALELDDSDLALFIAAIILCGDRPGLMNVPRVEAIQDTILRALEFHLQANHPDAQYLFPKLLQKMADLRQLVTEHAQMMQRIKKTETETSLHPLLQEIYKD
# Description: (§1) Activation of PPARs is evaluated in vitro on a line of monkey kidney fibroblasts (COS-7) by measuring the transcriptional activity of chimeras consisting of the DNA binding domain of Gal4 transcription factor of yeast and of the ligand binding domain of the various PPARs of human origin (hPPAR).
# (§2) The COS-7 cells are from ATCC and are cultivated in DMEM medium supplemented with 10% (vol/vol) of fetal calf serum, 1% of penicillin/streptomycin (Biochrom, AG), 1% of amino acids (Gibco) and 1% of sodium pyruvate (Gibco). The cells are incubated at 37° C. in a humid atmosphere containing 5% CO2.
# (§3) The plasmids Gal4(RE)_TkpGL3, pGal4-hPPARα, pGal4-hPPARγ, pGal4-hPPARδ and pGal4-φ are described in the literature (Raspe E et al., 1999). The constructs pGal4-hPPARα, pGal4-hPPARγ and pGal4-hPPARδ were obtained by cloning, into the pGal4-φ vector, DNA fragments amplified by PCR corresponding to the DEF domains (structural elements of the promoter of the PPARs: D=hinge, EF=ligand fixation domain and AF2 fixation site) of the human nuclear receptors PPAα, PPARγ and PPARδ.
# (§4) The adherent COS-7 cells are transfected with 40 μg of DNA per 225 cm^2 flask, with a pGal4-hPPAR/Gal4(RE)_TkpGL3 ratio of 1/10, in the presence of 10% of fetal calf serum. The cells are then detached and seeded in the absence of serum in 384-well plates (2×10^4 cells/well) then incubated for 4 hours at 37° C. The compounds are then diluted in a 96-well plate and then transferred to the 384-well plate. Activation with the test compounds is effected for a further 24 hours at 37° C. in the presence of 1% of synthetic serum Ultroser™ (Biosepra). These last 2 stages are automated by means of a Genesis Freedom 200™ station (Tecan). At the end of the experiment, the cells are lysed and the luciferase activity is determined using the Steady-Lite™ HTS (Perkin Elmer) according to the supplier's recommendations.
# (§5) The test data are summarized in Table 8-1 below, which presents, for each compound, the values of maximum activation (TOP %) and the EC50 values measured for each isoform of PPAR.
# [2] = biological target: T2, hPPARγ (Homo sapiens, UniProt P37231); assay: Gal4-hPPARγ chimera transactivation (luciferase) in COS-7 cells; details: 24 hours; for EC50: luciferase, read-out: PPARγ EC50; for Emax: relative to maximum activation obtained with rosiglitazone, read-out: PPARγ TOP % (maximum activation)
# T2 construct: corresponding to the DEF domains (structural elements of the promoter of the PPARs: D=hinge, EF=ligand fixation domain and AF2 fixation site); expressed in transfected cells; host or cells: COS-7 (monkey kidney fibroblasts)
# T2 sequence (P37231 238-503 limits assumed): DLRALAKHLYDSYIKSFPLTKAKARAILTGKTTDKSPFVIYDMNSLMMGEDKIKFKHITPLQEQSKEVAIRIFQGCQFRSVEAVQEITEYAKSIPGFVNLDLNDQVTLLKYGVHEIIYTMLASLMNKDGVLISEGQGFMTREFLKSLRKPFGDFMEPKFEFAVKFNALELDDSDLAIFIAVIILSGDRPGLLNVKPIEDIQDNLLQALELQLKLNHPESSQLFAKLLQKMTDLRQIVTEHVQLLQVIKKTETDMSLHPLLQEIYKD
# Description: as §1, §2, §3, §4, §5
# [3] = biological target: T3, hPPARα (Homo sapiens, UniProt Q07869); assay: Gal4-hPPARα chimera transactivation (luciferase) in COS-7 cells; details: for Emax: relative to maximum activation obtained with fenofibric acid, read-out: PPARα TOP % (maximum activation); for Emax / EC50: COS-7 cells, Gal4-hPPARα, 24 hours; for EC50: luciferase, read-out: PPARα EC50
# T3 construct: corresponding to the DEF domains (structural elements of the promoter of the PPARs: D=hinge, EF=ligand fixation domain and AF2 fixation site); expressed in transfected cells; host or cells: COS-7 (monkey kidney fibroblasts)
# T3 sequence (Q07869 239-466 limits assumed): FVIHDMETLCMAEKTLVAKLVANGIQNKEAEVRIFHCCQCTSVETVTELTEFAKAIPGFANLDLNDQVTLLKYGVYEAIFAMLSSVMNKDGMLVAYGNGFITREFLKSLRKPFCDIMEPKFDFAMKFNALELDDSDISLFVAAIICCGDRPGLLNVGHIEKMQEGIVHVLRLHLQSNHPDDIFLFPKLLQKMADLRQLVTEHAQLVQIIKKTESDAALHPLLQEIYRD
# Description: as §1, §2, §3, §4
# The test data are summarized in Table 8-1 below, which presents, for each compound, the values of maximum activation (TOP %) and the EC50 values measured for each isoform of PPAR. The values of maximum activation are expressed in percentages relative to the maximum activations obtained with reference agonists: fenofibric acid for PPARα, rosiglitazone for PPARγ and 2-methyl-4-((4-methyl-2-(4-trifluoromethylphenyl)-1,3-thiazol-5-yl)-methylsulfanyl)phenoxyacetic acid (also called GW501516) for PPARδ.
Compound,EC50 [1] [nM],Emax [1] [%],EC50 [2] [nM],Emax [2] [%],Emax [3] [%],EC50 [3] [nM],"selectivity among hPPAR isoforms (hPPARα) ([3]; Gal4-hPPAR chimeras, COS-7)"
"COc1nc(-c2ccc(C(F)(F)F)cc2)ccc1COc1ccc(OC(C)(C)C(=O)O)cc1 [Cpd 21, 2-(4-((2-methoxy-6-(4-(trifluoromethyl)phenyl)pyridin-3-yl)methoxy)-phenoxy)-2-methylpropanoic acid]",276,100,1430,51.5,70.2,–,–
"COc1nc(-c2ccccc2)ccc1CNc1ccc(OC(C)C(=O)O)cc1 (stereo not drawn) [Cpd 5, 2-(4-(((2-methoxy-6-phenylpyridin-3yl)methyl)amino)phenoxy)propanoic acid]",6170,71,3720,57.3,67.5,389,–
"CCSc1nc(-c2ccccc2)ccc1CNc1ccc(CCC(=O)O)cc1 [Cpd 38, 3-(4-(((2-(ethylthio)-6-phenylpyridin-3-yl)methyl)amino)phenyl)propanoic acid]",6780,64.5,7600,45.4,36.2,10800,–
"CC(C)(C)Oc1nc(-c2ccccc2)ccc1COc1ccc(OC(C)(C)C(=O)O)cc1 [Cpd 6, 2-(4-((2-tert-butyloxy-6-phenylpyridin-3-yl)methoxy)phenoxy)-2-methyl-propanoic acid]",489,70.7,11800,17.3,30.3,5430,–
"CC(C)Oc1nc(-c2ccccc2)ccc1CNc1ccc(CCC(=O)O)cc1 [Cpd 54, 3-(4-(((2-isopropyloxy-6-phenylpyridin-3-yl)methyl)amino)phenyl)propanoic acid]",3200,92.1,4850,42.2,34.5,7970,–
"CC#CC(CC(=O)O)c1ccc(OCc2cc(-c3ccccc3)cnc2OC)cc1 (stereo not drawn) [Cpd 52, 3-(4-((2-methoxy-5-phenylpyridin-3-yl)methoxy)phenyl)hex-4-ynoic acid]",19800,16.1,2760,54.8,34.3,13700,–
"COc1nc(-c2cccc(C(F)(F)F)c2)ccc1CNc1ccc(CCC(=O)O)cc1 [Cpd 40, 3-(4-(((2-methoxy-6-(3-(trifluoromethyl)phenyl)pyridin-3-yl)methyl)amino)-phenyl)propanoic acid]",80,107,955,87.2,66.7,165,–
"CCOc1nc(-c2ccccc2)ccc1CNc1ccc(CCC(=O)O)cc1 [Cpd 51, 3-(4-(((2-ethoxy-6-phenylpyridin-3-yl)methyl)amino)phenyl)propanoic acid]",1930,93.1,2230,70.9,50.5,1290,–
"CCCCCCOc1nc(-c2ccccc2)ccc1COc1ccc(OC(C)(C)C(=O)O)cc1 [Cpd 17, 2-(4-((2-hexyloxy-6-phenylpyridin-3-yl)methoxy)phenoxy)-2-methyl-propanoic acid]",992,99.6,583,75.6,66.8,9,–
"CCC(Nc1ccc(CCC(=O)O)cc1)c1ccc(-c2ccccc2)nc1OC (stereo not drawn) [Cpd 34, 3-(4-(1-((2-methoxy-6-phenylpyridin-3-yl)propyl)amino)phenyl)propanoic acid]",526,108,2330,80.4,67.6,1420,–
"COc1ncc(-c2ccc(C(F)(F)F)cc2)cc1CNc1ccc(CCC(=O)O)cc1 [Cpd 46, 3-(4-(((2-methoxy-5-(4-(trifluoromethyl)phenyl)pyridin-3-yl)methyl)amino)phenyl)propanoic acid]",28,107,1940,69.4,60,622,–
"COc1nc(-c2ccccc2)ccc1CNc1ccc(OC(C)(C)C(=O)O)cc1 [Cpd 12, 2-(4-(((2-methoxy-6-phenylpyridin-3-yl)methyl)amino)phenoxy)-2-methyl-propanoic acid]",2360,84.2,2640,44.9,78.1,195,–
"COc1nc(-c2ccccc2)ccc1CNc1ccc(SC(C)(C)C(=O)O)cc1 [Cpd 11, 2-(4-(((2-methoxy-6-phenylpyridin-3-yl)methyl)amino)phenylthio)-2-methyl-propanoic acid]",3000,85.7,2450,54.5,86.2,22,high selectivity for hPPARα
"COc1nc(-c2ccccc2)ccc1CN(C)c1ccc(CCC(=O)O)cc1 [Cpd 33, 3-(4-(((2-methoxy-6-phenylpyridin-3-yl)methyl)(methyl)amino)phenyl)-propanoic acid]",10500,74.5,12400,65,49.9,4550,–
"COc1cc(CCC(=O)O)ccc1NCc1ccc(-c2ccccc2)nc1OC [Cpd 44, 3-(3-methoxy-4-(((2-methoxy-6-phenylpyridin-3-yl)methyl)amino)-phenyl)-propanoic acid]",2380,80.6,2640,72.2,55.5,929,–
"CC(Oc1ccc(NCc2ccc(-c3ccccc3)nc2OC(C)(C)C)cc1)C(=O)O (stereo not drawn) [Cpd 10, 2-(4-(((2-tert-butyloxy-6-phenylpyridin-3-yl)methyl)amino)phenoxy)propanoic acid]",754,96.7,10500,25.6,53.2,6060,–
"COc1ncc(-c2ccc(Cl)cc2)cc1CNc1ccc(CCC(=O)O)cc1 [Cpd 49, 3-(4-(((5-(4-chlorophenyl)-2-methoxypyridin-3-yl)methyl)amino)phenyl)-propanoic acid]",408,123,4040,73.2,51.1,3620,–
"COc1nc(-c2ccccc2)ccc1CNc1ccc(SC(C(=O)O)c2ccccc2)cc1 (stereo not drawn) [Cpd 32, 2-(4-(((2-methoxy-6-phenylpyridin-3-yl)methyl)amino)phenylthio)-2-phenyl-acid]",22800,3.59,2510,66.6,70.4,1480,–
